The record followed here is PubChem BioAssay AID844 (SRMLSC, 2007).

pEC50: −log10 of the molar value. The source made the active and inactive calls. The rule behind the calls is not given here.

In this test the test system is MRP1 cells, doxorubicin viability shift, 10 uM compound. The test is described as follows: doxorubicin EC50 increase in MRP-1 cells, dose response, cell-based, doxorubicin EC50 shift (AID 844). Conditions: for pEC50: measured here: doxorubicin EC50 with compound.

On to `COc1ccc([N+](=O)[O-])cc1NC(=O)COC(=O)/C=C/c1ccco1`, for which the fold increase in Dox EC50 was 0.99 (inactive) and the pEC50 is 5.27.

For the molecule `COc1cc(C)ccc1N(CCCN1C(=O)c2cccc3cccc(c23)C1=O)C(=O)c1cccs1`, the fold increase in Dox EC50 is 1.13 (inactive) and the pEC50 is 5.21.

Consider `CCOC(=O)N1CCN(c2nc(-c3cccc(OC)c3)cc(C(F)(F)F)n2)CC1`, for which the fold increase in Dox EC50 is 1.11 (inactive) and the pEC50 is 5.22.

In the case of `CN(Cc1ccccc1)c1ncnc2c1cnn2-c1ccccc1`, the fold increase in Dox EC50 is 0.54 (inactive) and the pEC50 was 5.53.

As for `CC(C)(C)NC(=O)c1cccc(NC(=O)Cc2ccc(Br)cc2)c1`, the fold increase in Dox EC50 was 0.97 (inactive) and the pEC50 was 5.28.

In the case of `Cc1sc2nc(C3CC3)nc(N3CCN(S(=O)(=O)c4ccc(F)cc4)CC3)c2c1C`, the fold increase in Dox EC50 was 0.3 (inactive) and the pEC50 was 5.79.

As for `Cc1noc(/C=C/N(C)C)c1S(=O)(=O)N1CCCC(C(=O)NCc2ccco2)C1` (stereo not drawn), the fold increase in Dox EC50 is 1.04 (inactive) and the pEC50 was 5.25.

For the molecule `CC(=O)N1CCN=C1SCc1ccc(Cl)cc1`, the fold increase in Dox EC50 is 1.06 (inactive) and the pEC50 is 5.24.

Take `COc1ccccc1-c1cc(C(=O)NC(C)c2ccccc2)no1` (stereo not drawn): the fold increase in Dox EC50 was 1.04 (inactive) and the pEC50 was 5.25.

For the molecule `O=C(CC(=O)N/N=C/c1ccccc1O)NCc1cccnc1`, the fold increase in Dox EC50 is 0.39 (inactive) and the pEC50 was 5.68.

`CCOC(=O)/C=C1\SCC(=O)N1CCOc1cccc(Br)c1`: the fold increase in Dox EC50 is 1.2 (inactive) and the pEC50 was 5.19.

For `O=C(Nc1ccn(Cc2c(F)c(F)cc(F)c2F)n1)c1ccc(COc2ccc(Cl)cc2Cl)o1`, the fold increase in Dox EC50 was 1.01 (inactive) and the pEC50 is 5.26.

Take `Cc1oc(C(=O)Nc2ccc(C(=O)O)cc2)cc1COc1ccccc1`: the fold increase in Dox EC50 is 0.42 (inactive) and the pEC50 is 5.65.

As for `COc1ccc(/C=N\NC(=O)c2cc(O)c(O)c(O)c2)cc1CN1CCN(c2ccc(F)cc2)CC1`, the fold increase in Dox EC50 is 0.69 (inactive) and the negative-log EC50 (pEC50) is 5.43.

On to `c1coc(C2Nc3cccc4cccc(c34)N2)c1`, for which the fold increase in Dox EC50 was 0.21 (inactive) and the pEC50 is 5.95.

Regarding `Cc1ccc2nc3c(cc2c1)CC1(C(=O)N(C)C(=O)N(C)C1=O)C1CCCCN31` (stereo not drawn), the fold increase in Dox EC50 is 0.59 (inactive) and the pEC50 was 5.49.

Turning to `CCOC(=O)c1c(-c2cccc([N+](=O)[O-])c2)csc1NC(=O)C1CCCCC1`, the fold increase in Dox EC50 is 0.34 (inactive) and the pEC50 is 5.74.

As to `O=C(CCc1ccccc1)Nc1nnc(-c2ccc3c(c2)CCCC3)o1`, the fold increase in Dox EC50 was 0.25 (inactive) and the pEC50 was 5.87.

With `COc1ccc(Cl)cc1C(=O)Nc1ccc2c(c1)OCO2`, the fold increase in Dox EC50 was 0.66 (inactive) and the pEC50 was 5.45.

Regarding `CN(C)S(=O)(=O)c1ccc(S(=O)(=O)N2CCN(CCC#N)CC2)cc1`, the fold increase in Dox EC50 is 0.71 (inactive) and the negative logarithm of the EC50 (pEC50) was 5.41.

Take `C/C(=N/NC(=S)Nc1ccccc1)c1ccc2c(c1)OCO2`: the fold increase in Dox EC50 was 1.01 (inactive) and the negative-log EC50 (pEC50) was 5.26.

Take `COc1ccc(/C=N/Nc2nc(-c3ccc(Cl)cc3)cc(C(F)(F)F)n2)cc1OC`: the fold increase in Dox EC50 was 0.35 (inactive) and the pEC50 is 5.72.

For `S=C(NCc1ccccn1)Nc1ccccc1Cl`, the fold increase in Dox EC50 is 1.14 (inactive) and the pEC50 is 5.21.

For the molecule `COc1ccc(N2CCN(c3oc(COc4ccc(Cl)cc4)nc3C#N)CC2)cc1`, the fold increase in Dox EC50 is 1.64 and the pEC50 was 5.05.

On to `Cc1nc(NC(=S)NC(=O)c2cccs2)sc1C(=O)N(C)C`, for which the fold increase in Dox EC50 is 1.04 (inactive) and the pEC50 is 5.25.

As to `COC1(OC)C(=N/O)/C(=N\O)CCC1O` (stereo not drawn), the fold increase in Dox EC50 was 0.77 (inactive) and the pEC50 was 5.38.

In the case of `Cc1ccc(CCNC(=O)C2CCCN2S(=O)(=O)c2ccc3c(c2)CCC(=O)N3)cc1` (stereo not drawn), the fold increase in Dox EC50 is 0.64 (inactive) and the pEC50 was 5.46.

As for `O=C(c1ccc(COc2ccc(Cl)cc2)o1)N1N=C(C(F)F)CC1(O)C(F)F` (stereo not drawn), the fold increase in Dox EC50 was 1.44 (inactive) and the pEC50 is 5.11.

Take `CCOC(=O)c1sc2nc3n(c(=O)c2c1C)CCCCC3`: the fold increase in Dox EC50 was 0.52 (inactive) and the pEC50 is 5.55.

As to `Cc1ccc(C(=O)NC(C)c2ccc(F)cc2)cc1` (stereo not drawn), the fold increase in Dox EC50 was 0.68 (inactive) and the pEC50 is 5.43.

On to `O=C(Nc1cccc(Cl)c1)c1c(O)c2c(n(Cc3ccccc3)c1=O)CCCC2`, for which the fold increase in Dox EC50 was 1.14 (inactive) and the pEC50 was 5.21.

On to `CCN(CC)CCN(Cc1cc2cc(C)cc(C)c2[nH]c1=O)C(=S)NCc1ccco1`, for which the fold increase in Dox EC50 was 0.19 (inactive) and the pEC50 is 5.99.

With `Cc1ccc(NC(=O)CSc2nnc(-c3cccs3)n2Cc2ccco2)cc1`, the fold increase in Dox EC50 is 0.78 (inactive) and the pEC50 was 5.37.

For the molecule `O=C(NCC1(c2ccccc2)CCOCC1)c1ccc(Br)o1`, the fold increase in Dox EC50 is 1.3 (inactive) and the pEC50 was 5.15.

Take `O=C(CSc1nnc(-c2ccccc2)n1-c1ccc(Cl)cc1)N/N=C/c1ccco1`: the fold increase in Dox EC50 was 0.53 (inactive) and the pEC50 is 5.55.

In the case of `O=C(OC1CCc2ccccc2C1=O)c1ccccc1O` (stereo not drawn), the fold increase in Dox EC50 was 0.69 (inactive) and the pEC50 is 5.43.

`Cc1cccc(C)c1-n1c(C)cc(/C=C2\C(=O)NN(c3ccccc3)C2=O)c1C`: the fold increase in Dox EC50 is 0.63 (inactive) and the pEC50 is 5.47.

In the case of `O=C1NC(=O)C2(COC(c3ccccc3Cl)OC2)S1` (stereo not drawn), the fold increase in Dox EC50 was 0.69 (inactive) and the pEC50 was 5.43.

Take `Cc1nc(=O)c(-c2ccccc2)c(C)n1-c1ccc(C(=O)O)cc1`: the fold increase in Dox EC50 is 1.3 (inactive) and the pEC50 was 5.15.

With `CCOC(=O)c1ccc(N2CN=C3SCC(=O)N3C2)cc1`, the fold increase in Dox EC50 is 0.3 (inactive) and the pEC50 was 5.79.

On to `CCCCCCCOc1ccc(-c2ccc(C#N)cn2)cc1`, for which the fold increase in Dox EC50 was 0.67 (inactive) and the pEC50 was 5.44.

Consider `CCn1c(C)cc(/C=C2\NC(=O)N(Cc3ccc(Cl)cc3)C2=O)c1C`, for which the fold increase in Dox EC50 is 1.14 (inactive) and the pEC50 is 5.21.

On to `CCOc1ccccc1N(C(=O)c1snc(C(N)=O)c1N)C(C(=O)NCCC(C)C)c1ccco1` (stereo not drawn), for which the fold increase in Dox EC50 is 0.3 (inactive) and the pEC50 is 5.79.

Take `COc1ccc(Cc2nnc(NC(=O)c3c(-c4ccccc4)noc3C)s2)cc1OC`: the fold increase in Dox EC50 is 0.52 (inactive) and the pEC50 is 5.55.

Take `O=C(Cc1ccccc1F)Nc1cccc2cccnc12`: the fold increase in Dox EC50 is 1.68 and the pEC50 was 5.04.

Turning to `Cc1nc(OCc2ccccc2)c2sc3nc4c(cc3c2n1)COC(C)(C)C4`, the fold increase in Dox EC50 was 1.3 (inactive) and the pEC50 is 5.15.

As for `CCOC(=O)c1ccc(Oc2nc(NC(C)(C)C)nc(N(C)C)n2)cc1`, the fold increase in Dox EC50 is 0.82 (inactive) and the pEC50 is 5.35.

For `COC(=O)C1C(=O)c2c([nH]c(C(=O)OC3CCCCC3)c2C)CC1C` (stereo not drawn), the fold increase in Dox EC50 is 0.69 (inactive) and the pEC50 is 5.43.

`COc1cc(NS(=O)(=O)c2ccc(C)cc2)ccc1-n1cnnn1`: the fold increase in Dox EC50 is 1.02 (inactive) and the pEC50 was 5.26.

Take `CC(C)CCC1CC(CSC(=N)N)OC1=O` (stereo not drawn): the fold increase in Dox EC50 is 0.68 (inactive) and the pEC50 was 5.43.

In the case of `Cc1ccc(C2CC(C(F)(F)F)n3nc(C(=O)NCc4c(C)nn(C)c4C)c(Cl)c3N2)cc1` (stereo not drawn), the fold increase in Dox EC50 is 1.13 (inactive) and the pEC50 is 5.21.

As to `CC1(C)Cc2c(sc3nnn(Cc4ccc(Cl)cc4)c(=O)c23)CO1`, the fold increase in Dox EC50 was 0.85 (inactive) and the pEC50 is 5.34.

For `COc1ccccc1NC(=O)CSC1=NCCN1`, the fold increase in Dox EC50 is 0.68 (inactive) and the pEC50 was 5.43.

As for `Cc1nc(=O)c(-c2ccccc2)c(C)n1-c1cccc(C(=O)O)c1`, the fold increase in Dox EC50 was 1.26 (inactive) and the pEC50 is 5.17.

With `Cc1cccc(-n2c(N)cc(=O)nc2SCC(=O)Nc2nnc(C)s2)c1`, the fold increase in Dox EC50 was 1.54 and the pEC50 is 5.08.

With `COC(=O)C(CC(C)C)NC(=O)CSc1nc(-c2ccccc2)c(C#N)c(=O)[nH]1` (stereo not drawn), the fold increase in Dox EC50 was 1.85 and the pEC50 was 5.00.

Turning to `O=C1CCCC(O)=C1N=Nc1ccc2c(c1)OCO2`, the fold increase in Dox EC50 was 1.17 (inactive) and the pEC50 is 5.20.

Turning to `Cc1ccc(CN2C(=O)NC(=O)C3(Cc4c(nc5ccccn5c4=O)N4CCCCCC43)C2=O)cc1` (stereo not drawn), the fold increase in Dox EC50 was 1.02 (inactive) and the pEC50 is 5.26.

In the case of `CCc1ccc(-c2csc(NC(=O)Oc3ccccc3)n2)cc1`, the fold increase in Dox EC50 was 1.23 (inactive) and the pEC50 was 5.18.

As for `O=C(CSc1ncn[nH]1)Nc1nnc(-c2ccccc2)s1`, the fold increase in Dox EC50 is 0.58 (inactive) and the pEC50 is 5.51.

Turning to `O=C(c1ccco1)N1CCN=C1SCc1ccc(F)cc1`, the fold increase in Dox EC50 is 0.87 (inactive) and the pEC50 was 5.33.

As to `O=C(CCNC(=O)Cn1ccc2ccccc2c1=O)NCCc1ccccc1Cl`, the fold increase in Dox EC50 is 1.14 (inactive) and the pEC50 is 5.21.

Take `Cn1c(=O)c2c(nc(OCc3ccccc3)n2C)n(C)c1=O`: the fold increase in Dox EC50 was 0.7 (inactive) and the pEC50 is 5.42.

As for `COc1ccc(CSC2=NCCN2)cc1Cl`, the fold increase in Dox EC50 is 0.63 (inactive) and the pEC50 was 5.47.
